Reference: ChEMBL document CHEMBL1777781, “Synthesis and antidyslipidemic activity of chalcone fibrates” (2011)

Experiments:
Syrian golden hamster [1] = assay: Antidyslipidemic activity against high fructose high fat diet fed syrian golden hamster assessed as reduction in serum cholesterol at 30 mg/kg, po for 7 days relative to untreated control; assay type: functional, Mesocricetus auratus; set-up: scale not given: the % may be the effect or the level left
Syrian golden hamster [2] = assay: Antidyslipidemic activity against high fructose high fat diet fed syrian golden hamster assessed as change in serum HDL-cholesterol at 30 mg/kg, po for 7 days relative to untreated control; assay type: functional, Mesocricetus auratus
Syrian golden hamster [3] = assay: Antidyslipidemic activity against high fructose high fat diet fed syrian golden hamster assessed as reduction in serum LDL-cholesterol at 30 mg/kg, po for 7 days relative to untreated control; assay type: functional, Mesocricetus auratus; set-up: scale not given: the % may be the effect or the level left
Syrian golden hamster [4] = assay: Antidyslipidemic activity against high fructose high fat diet fed syrian golden hamster assessed as reduction in serum triglyceride at 30 mg/kg, po for 7 days relative to untreated control; assay type: functional, Mesocricetus auratus; set-up: scale not given: the % may be the effect or the level left
Syrian golden hamster [5] = assay: Antidiabetic activity against high fructose high fat diet fed syrian golden hamster assessed as change in serum insulin level at 30 mg/kg, po for 7 days by ELISA relative to untreated control; assay type: functional, Mesocricetus auratus
Syrian golden hamster [6] = assay: Antidiabetic activity against high fructose high fat diet fed syrian golden hamster assessed as change in fasting blood glucose level at 30 mg/kg, po for 7 days relative to untreated control; assay type: functional, Mesocricetus auratus
Syrian golden hamster [7] = assay: Antidyslipidemic activity against high fructose high fat diet fed syrian golden hamster assessed as reduction in glycerol level at 10 mg/kg, po for 7 days relative to untreated control; assay type: functional, Mesocricetus auratus; set-up: scale not given: the % may be the effect or the level left
Syrian golden hamster [8] = assay: Antidyslipidemic activity against high fructose high fat diet fed po dosed syrian golden hamster assessed as increase in serum HDL-cholesterol administered for 7 days relative to untreated control; assay type: functional, organism-based; details: Mesocricetus auratus
Syrian golden hamster [9] = assay: Antidyslipidemic activity against high fructose high fat diet fed po dosed syrian golden hamster assessed as reduction in serum triglyceride administered for 7 days relative to untreated control; assay type: functional, organism-based; details: Mesocricetus auratus
Syrian golden hamster [10] = assay: Antidyslipidemic activity against high fructose high fat diet fed po dosed syrian golden hamster assessed as reduction in serum LDL-cholesterol administered for 7 days relative to untreated control; assay type: functional, organism-based; details: Mesocricetus auratus
Syrian golden hamster [11] = assay: Antidyslipidemic activity against high fructose high fat diet fed syrian golden hamster assessed as change in serum HDL-cholesterol at 10 mg/kg, po for 7 days relative to untreated control; assay type: functional, Mesocricetus auratus
Syrian golden hamster [12] = assay: Antidyslipidemic activity against high fructose high fat diet fed syrian golden hamster assessed as reduction in body weight at 30 mg/kg, po for 7 days relative to untreated control; assay type: functional, Mesocricetus auratus; set-up: scale not given: the % may be the effect or the level left
Syrian golden hamster [13] = assay: Antidyslipidemic activity against high fructose high fat diet fed syrian golden hamster assessed as increase in lipoprotein lipase activity at 10 mg/kg, po for 7 days relative to untreated control; assay type: functional, Mesocricetus auratus
Syrian golden hamster [14] = assay: Antidyslipidemic activity against high fructose high fat diet fed syrian golden hamster assessed as reduction in serum triglyceride at 10 mg/kg, po for 7 days relative to untreated control; assay type: functional, Mesocricetus auratus; set-up: scale not given: the % may be the effect or the level left
Syrian golden hamster [15] = assay: Antidyslipidemic activity against high fructose high fat diet fed syrian golden hamster assessed as reduction in serum cholesterol at 10 mg/kg, po for 7 days relative to untreated control; assay type: functional, Mesocricetus auratus; set-up: scale not given: the % may be the effect or the level left
Syrian golden hamster [16] = assay: Antidyslipidemic activity against high fructose high fat diet fed po dosed syrian golden hamster assessed as increase in lipoprotein lipase activity administered for 7 days relative to untreated control; assay type: functional, organism-based; details: Mesocricetus auratus
Syrian golden hamster [17] = assay: Antidyslipidemic activity against high fructose high fat diet fed syrian golden hamster assessed as reduction in NEFA level at 30 mg/kg, po for 7 days relative to untreated control; assay type: functional, Mesocricetus auratus; set-up: scale not given: the % may be the effect or the level left
Syrian golden hamster [18] = assay: Antidyslipidemic activity against high fructose high fat diet fed syrian golden hamster assessed as reduction in glycerol level at 30 mg/kg, po for 7 days relative to untreated control; assay type: functional, Mesocricetus auratus; set-up: scale not given: the % may be the effect or the level left
Syrian golden hamster [19] = assay: Antidyslipidemic activity against high fructose high fat diet fed syrian golden hamster assessed as reduction in NEFA level at 10 mg/kg, po for 7 days relative to untreated control; assay type: functional, Mesocricetus auratus; set-up: scale not given: the % may be the effect or the level left
Syrian golden hamster [20] = assay: Antidyslipidemic activity against high fructose high fat diet fed po dosed syrian golden hamster assessed as reduction in glycerol level administered for 7 days relative to untreated control; assay type: functional, organism-based; details: Mesocricetus auratus
Syrian golden hamster [21] = assay: Antidyslipidemic activity against high fructose high fat diet fed po dosed syrian golden hamster assessed as reduction in serum cholesterol administered for 7 days relative to untreated control; assay type: functional, organism-based; details: Mesocricetus auratus
Syrian golden hamster [22] = assay: Antidyslipidemic activity against high fructose high fat diet fed syrian golden hamster assessed as increase in lipoprotein lipase activity at 30 mg/kg, po for 7 days relative to untreated control; assay type: functional, Mesocricetus auratus
Syrian golden hamster [23] = assay: Antidyslipidemic activity against high fructose high fat diet fed syrian golden hamster assessed as reduction in serum LDL-cholesterol at 10 mg/kg, po for 7 days relative to untreated control; assay type: functional, Mesocricetus auratus; set-up: scale not given: the % may be the effect or the level left
Syrian golden hamster [24] = assay: Antidyslipidemic activity against high fructose high fat diet fed po dosed syrian golden hamster assessed as reduction in NEFA level administered for 7 days relative to untreated control; assay type: functional, organism-based; details: Mesocricetus auratus

Structure (SMILES) | Activity (Syrian golden hamster [1]) | Activity (Syrian golden hamster [2]) | Activity (Syrian golden hamster [3]) | Activity (Syrian golden hamster [4]) | Activity (Syrian golden hamster [5]) | Activity (Syrian golden hamster [6]) | further results
CCOC(=O)C(C)(C)Oc1ccc(C(=O)/C=C/c2ccc(F)cc2)cc1 | 16.8% | 4.8% | 23.2% | 22.2% | -4.9% | -18.4% | –
CCOC(=O)C(C)(C)Oc1ccc(C(=O)/C=C/c2ccc(C)cc2)cc1 | 23.4% | 2.52% | 19.8% | 22.7% | -10.8% | -12.9% | –
CCOC(=O)C(C)(C)Oc1ccc(/C=C/C(=O)c2ccccc2)cc1 | 17.8% | 10.8% | 16.8% | 25.1% | 6.78% | 8.8% | –
CCOC(=O)C(C)(C)Oc1cccc(/C=C/C(=O)c2ccccc2)c1 | 11.5% | 2.1% | 15.3% | 18.5% | -5.89% | -10.5% | –
CCOC(=O)C(C)(C)Oc1ccc(C(=O)/C=C/c2ccc3c(c2)OCO3)cc1 | 26.8% | 9.8% | 41.7% | 41.6% | -22.2% | -14.8% | Activity (Syrian golden hamster [7]): 14.9%; Activity (Syrian golden hamster [8]): Dose-dependent effect; Activity (Syrian golden hamster [9]): Dose-dependent effect; Activity (Syrian golden hamster [10]): Dose-dependent effect; Activity (Syrian golden hamster [11]): 3.78%; Activity (Syrian golden hamster [12]): 6.25%; Activity (Syrian golden hamster [13]): 14.5%; Activity (Syrian golden hamster [14]): 20%; Activity (Syrian golden hamster [15]): 18.6%; Activity (Syrian golden hamster [16]): Dose-dependent effect; Activity (Syrian golden hamster [17]): 20.5%; Activity (Syrian golden hamster [18]): 24.9%; Activity (Syrian golden hamster [19]): 6.73%; Activity (Syrian golden hamster [20]): Dose-dependent effect; Activity (Syrian golden hamster [21]): Dose-dependent effect; Activity (Syrian golden hamster [22]): 30.2%; Activity (Syrian golden hamster [23]): 25.2%; Activity (Syrian golden hamster [24]): Dose-dependent effect
CCOC(=O)C(C)(C)Oc1ccc(C(=O)/C=C/c2cc(Cl)cc(Cl)c2)cc1 | 16.9% | 10.1% | 16.8% | 17.4% | -12.1% | -8.4% | –
CCOC(=O)C(C)(C)Oc1ccc(C(=O)/C=C/c2ccc([N+](=O)[O-])cc2)cc1 | 25% | 5.88% | 28.5% | 30.4% | -24.3% | -7.49% | Activity (Syrian golden hamster [7]): 7.93%; Activity (Syrian golden hamster [8]): Dose-dependent effect; Activity (Syrian golden hamster [9]): Dose-dependent effect; Activity (Syrian golden hamster [10]): Dose-dependent effect; Activity (Syrian golden hamster [11]): -3.36%; Activity (Syrian golden hamster [12]): 6.85%; Activity (Syrian golden hamster [13]): 10.8%; Activity (Syrian golden hamster [14]): 20%; Activity (Syrian golden hamster [15]): 15.6%; Activity (Syrian golden hamster [16]): Dose-dependent effect; Activity (Syrian golden hamster [17]): 15.9%; Activity (Syrian golden hamster [18]): 17.2%; Activity (Syrian golden hamster [19]): 2.45%; Activity (Syrian golden hamster [20]): Dose-dependent effect; Activity (Syrian golden hamster [21]): Dose-dependent effect; Activity (Syrian golden hamster [22]): 21.7%; Activity (Syrian golden hamster [23]): 16.9%; Activity (Syrian golden hamster [24]): Dose-dependent effect
CCOC(=O)C(C)(C)Oc1ccc(C(=O)/C=C/c2ccc(OC)cc2)cc1 | 9.3% | -9.9% | 27.4% | 31.2% | -5.87% | -16.9% | –
CC(C)OC(=O)C(C)(C)Oc1ccc(C(=O)c2ccc(Cl)cc2)cc1 [FENOFIBRATE] | – | 9.8% | 30.1% | 28.9% | -11.5% | -5.4% | Activity (Syrian golden hamster [18]): 22.4%; Activity (Syrian golden hamster [22]): 21.1%
CCOC(=O)C(C)(C)Oc1ccc(C(=O)/C=C/c2ccccc2Cl)cc1 | 0.48% | 15.6% | 16.4% | 21.3% | 2.39% | 4.65% | –
CCOC(=O)C(C)(C)Oc1ccc(C(=O)/C=C/c2ccc(Cl)cc2)cc1 | 23.7% | -2.52% | 20.5% | 22.7% | -22.2% | 5.4% | –
